According to PubChem BioAssay (NCI):
Values joined by “and” are separate entries in the source; they are usually repeats but may differ in a detail not shown here. Equal values may be shown once.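 Method: 48-hour compound exposure of cells in 96-well plates, five concentrations, linear interpolation of endpoints. At the GI50, growth is halved. TGI denotes the concentration required for complete inhibition of growth.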 Where a SMILES comes first, the peptide text is derived from it. [ ]: non-standard residue; d: D form. Phe(4-Cl) = N[CH](Cc1ccc(Cl)cc1)C(=O)O

What was measured:
Experiment in all cases: NCI-60 cell line screen, 48 h
HCT-15 colon = tested on: HCT-15 colon
COLO 205 colon = tested on: COLO 205 colon
OVCAR-5 ovarian = tested on: OVCAR-5 ovarian
DMS 273 small cell lung = tested on: DMS 273 small cell lung
LXFL 529 NSCLC = tested on: LXFL 529 NSCLC
UO-31 renal = tested on: UO-31 renal
HOP-18 NSCLC = tested on: HOP-18 NSCLC
U251 CNS = tested on: U251 CNS
SF-268 CNS = tested on: SF-268 CNS
DU-145 prostate = tested on: DU-145 prostate

Structure (SMILES) | TGI (HCT-15 colon) | TGI (COLO 205 colon) | TGI (OVCAR-5 ovarian) | TGI (DMS 273 small cell lung) | TGI (LXFL 529 NSCLC) | TGI (UO-31 renal) | TGI (HOP-18 NSCLC) | TGI (U251 CNS) | TGI (SF-268 CNS) | GI50 (COLO 205 colon) | GI50 (OVCAR-5 ovarian) | GI50 (UO-31 renal) | GI50 (SF-268 CNS) | GI50 (U251 CNS) | TGI (DU-145 prostate) | GI50 (HCT-15 colon) | GI50 (LXFL 529 NSCLC) | GI50 (HOP-18 NSCLC) | GI50 (DMS 273 small cell lung)
Cc1ccc2nc3c(C(=O)NCCN(C)C)cccc3nc2c1 | 18 µM | > 22.4 µM | 29.8 µM | > 100 µM | > 47.1 µM | > 54.8 µM | > 87.3 µM | 24.3 µM | – | – | – | – | – | – | – | – | – | – | –
CC1(n2nc(-c3ccccc3)n(-c3ccccc3)c2=O)CSC1 | > 100 µM | > 100 µM | > 100 µM | > 100 µM | > 100 µM | > 100 µM | – | > 100 µM | > 100 µM | – | – | – | – | – | – | – | – | – | –
CCC1(O)C(=O)OCc2c1cc1n(c2=O)Cc2cc3ccc(C=O)cc3nc2-1 (centres undefined) | 40.2 µM and > 62.4 µM | 12.5 µM and 31.3 µM | 50 µM and 55.2 µM | 3.89 µM | > 100 µM | 5.14 µM and 7.98 µM | > 100 µM | 50 µM and 8.82 µM | 50 µM and 40 µM | 5.77 µM | 10.5 µM | 1.08 µM | 0.376 µM | 1.02 µM | 3.21 µM and 24.3 µM | – | – | – | –
Cn1cc(C(=O)c2ccccc2)ccc1=O | > 100 µM | > 100 µM | > 100 µM | > 100 µM | > 100 µM | > 100 µM | – | > 100 µM | > 100 µM | – | – | – | – | – | – | – | – | – | –
Cc1noc(C)c1CCCOC1COc2ccccc2OCCOCCOc2ccccc2OC1 | > 100 µM | > 100 µM | > 100 µM | > 100 µM | > 100 µM | > 100 µM | > 100 µM | > 100 µM | > 100 µM | – | – | – | – | – | – | – | – | – | –
CC(=O)[CH-]C(=O)c1ccccc1.CC(=O)[CH-]C(=O)c1ccccc1.O=C([O-])c1ccc([O-])cc1.O=C([O-])c1ccc([O-])cc1.[Ti+4] | > 100 µM | 40.1 µM | > 100 µM | – | > 100 µM | 76.4 µM | > 100 µM | > 100 µM | > 100 µM | 20.6 µM | 74.5 µM | 23.1 µM | 25 µM | 45 µM | – | 56.6 µM | 31.1 µM | 68.8 µM | –
CC(C)(C)OC(=O)Cc1ccc2c(ccn2Cc2ccccc2)c1 | > 100 µM | > 100 µM | > 100 µM | > 100 µM | > 100 µM | > 100 µM | > 100 µM | > 100 µM | > 100 µM | – | – | – | – | – | – | – | – | – | –
Nc1ccc(/C=C/c2ccnc3ccccc23)cc1 | > 100 µM | 48.6 µM | 60.9 µM | 48.9 µM | 58.7 µM | 47.5 µM | – | 59.4 µM | 47.5 µM | – | – | – | – | – | – | – | – | – | –
CCCCCCCCCCCCCC1CCC(CC)N1 (centres undefined) | 16.5 µM | 28.9 µM | 30.3 µM | 29.1 µM | 32.6 µM | 27.4 µM | 30.9 µM | 18 µM | 22.4 µM | – | – | – | – | – | – | – | – | – | –
N.N.N.N.N.O=C([O-])c1nn[n-]n1.[Cl-].[Co+3] | > 100 µM | > 100 µM | > 100 µM | > 100 µM | > 100 µM | > 100 µM | > 100 µM | > 100 µM | > 100 µM | > 100 µM | > 100 µM | > 100 µM | > 100 µM | > 100 µM | – | > 100 µM | > 100 µM | > 100 µM | > 100 µM
COc1ccc2c(c1)C=C([N+](=O)[O-])C(C1OC(C)(C)OC1C1COC(C)(C)O1)O2 (centres undefined) | 5.2 µM | 30 µM | 20.7 µM | 9.22 µM | 13.8 µM | 26.3 µM | 42 µM | 9.83 µM | 13.5 µM | – | – | – | – | – | 29.5 µM | – | – | – | –
CN(C)P(=O)(/C(N)=N/Nc1ccc([N+](=O)[O-])cc1)N(C)C | > 100 µM | > 100 µM | > 100 µM | > 100 µM | > 100 µM | > 100 µM | – | > 100 µM | > 100 µM | – | – | – | – | – | – | – | – | – | –
CC(O)C(NC(=O)C(Cc1ccccc1)NC(=O)C(NC(=O)C(CCCCN)NC(=O)C(Cc1c[nH]c2ccccc12)NC(=O)C(Cc1ccc(O)cc1)NC(=O)C(Cc1ccc(Cl)cc1)NC(=O)C(N)Cc1ccccc1)C(C)O)C(N)=O (centres undefined) (H-F[Phe(4-Cl)]YWKTFT-NH2; configuration not given here) | 41.5 µM | 51.7 µM | – | > 100 µM | 39.4 µM | 37.5 µM | – | 35.8 µM | – | – | – | – | – | – | – | – | – | – | –
NC1=NN(c2ccccc2)C(=O)C1C(=O)CCC(=O)Nc1cccc(C(F)(F)F)c1 (centres undefined) | > 100 µM | > 100 µM | > 100 µM | > 100 µM | > 100 µM | > 100 µM | > 100 µM | > 100 µM | > 100 µM | – | – | – | – | – | – | – | – | – | –
Cc1ccccc1N(CCC#N)C1=NN(C(=O)CC(=O)Nc2ccccc2)C(c2ccccc2)C1 (centres undefined) | > 100 µM | > 100 µM | > 100 µM | > 100 µM | > 100 µM | > 100 µM | > 100 µM | > 100 µM | > 100 µM | – | – | – | – | – | – | – | – | – | –
COC(=O)C1=NC(=S)NC(c2ccccc2)C1c1nc2ccccc2s1 (centres undefined) | > 100 µM | > 100 µM | – | > 100 µM | > 100 µM | > 100 µM | > 100 µM | > 100 µM | > 100 µM | – | – | – | – | – | – | – | – | – | –
CCOC1=NC(=O)CC(c2ccccc2)S1 (centres undefined) | > 100 µM | > 100 µM | > 100 µM | > 100 µM | > 100 µM | > 100 µM | – | > 100 µM | > 100 µM | – | – | – | – | – | – | – | – | – | –
CCC[CH2][Sn]1([CH2]CCC)[O]C(=O)C(C(C)C)N=Cc2ccccc2[O]1 (centres undefined) | 1.34 µM | 0.693 µM | 2.98 µM | 2.04 µM | 0.2 µM | 1.8 µM | 1.92 µM | 0.636 µM | 1.01 µM | 0.213 µM | 1.61 µM | 0.462 µM | 0.182 µM | 0.228 µM | – | 0.345 µM | 0.0617 µM | 0.668 µM | 0.73 µM
Cc1ccc(Nc2nc3c(s2)C(=O)c2ccccc2C3=O)c(C)c1 | 41.5 µM | 35.2 µM | 34.8 µM | 43.7 µM | 28.7 µM | 27.3 µM | 20.1 µM | 42.5 µM | 24.1 µM | – | – | – | – | – | – | – | – | – | –
O=C(O)CP(=S)(S)c1ccccc1 (centres undefined) | – | > 100 µM | – | > 100 µM | > 100 µM | > 100 µM | – | > 100 µM | > 100 µM | – | – | – | – | – | – | – | – | – | –
